“Also recorded” adds a separate entry of the source. Read-outs that look alike come from different tables or passages of the source.
Columns and labels:
[1] = test system: C. difficile (strain VPI 10463); test: Murine CDI model, InsP6 given intragastrically; type: in vivo, C57BL/6 mice; details: for Protection of mice from CDI (survival): oral/intragastric 0.25 and 2.5 mg/kg/day, 10^6 C. difficile, survival at day 6
Description: FIGS. 3A-3D show therapeutic allostery and examples of the assays to test designed compounds. […] (FIGS. 3C-3D) Kaplan-Meier survival plots of infected mice. C57BL/6 mice were inoculated with 10^6 C. difficile.
Optimization of Phytase-Resistant InsP6 Analogues for CDI Therapy. Aspects of the present invention provide compositions and methods of neutralizing C. difficile exotoxins in the extracellular gut environment. […] C57BL/6 mice were administered antibiotics and then orally inoculated with 10^4-to-10^6 C. difficile (strain VPI 10463). Disease outcome measures included evidence of inflammation and fluid secretion in the caecum and colon of severely afflicted animals, and of characteristic pseudomembraneous histopathologic lesions in the colonic mucosa. […] The highest bacterial dose (10^6 CFU) was used to test for InsP6 efficacy given intra-gastrically (0.25-to-2.5 mg/kg/day; range is within the recommended oral daily dose for humans (1,020 mg/day)).

TcdA and TcdB holotoxins [2] = type: biochemical, Clostridium difficile; details: for AC50: read-out: AC50 (concentration that provides half the maximum activity)
Description: (§1) In Vitro Testing of Nitroso-InsP6 Derivatives. In vitro testing and measurement of binding affinities of compounds are performed using toxin cleavage assays, and by radioligand or BIACORE-toxin binding studies, respectively. For medium throughput toxin cleavage assays, autocleavage of 1 μg TcdA and TcdB holotoxins is performed in 25 μL 20 mM Tris-HCI, 150 mM NaCI (pH 7.4) with and without InsP6 for 10-60 min at 37° C. (FIG. 6). Cleavage reactions are then stopped with SDS-PAGE loading buffer and boiling at 96° C. for 5 min. Samples are then run under reducing conditions on 4-20% gradient gels and cleavage products stained with GelcodeBiue™ for 1 hr and cleared in water overnight. AC50 and IC50 concentrations are calculated by measuring the relative absorbance of cleavage fragments relative to intact toxin using a LiCor Odyssey infrared scanner (λ=680 nm). Cleavage is plotted against ligand concentration using four-parameter logistic curve fitting on SigmaPlot 11.0 software. If the toxin cleavage efficiency remains unaltered in purified nitroso-InsP6 fractions, then toxin Rac1 glucosylation and cell rounding assays are initiated to evaluate cytoprotection in cell culture systems. […] Thus, enzymatic digestions of nitroso-InsP6 derivatives are carried out with EC 3.1.3.8 (type 3 phytase); EC 3.1.3.72 (type 5 phytase), and EC 3.1.3.26 (type 4/6 phytase) to test whether the NO-modifications are nonhydrolysable (e.g., FIG. 7).

phytase = details: FIG. 7
Description: In Vitro Testing of Nitroso-InsP6 Derivatives. In vitro testing and measurement of binding affinities of compounds are performed using toxin cleavage assays, and by radioligand or BIACORE-toxin binding studies, respectively. For medium throughput toxin cleavage assays, autocleavage of 1 μg TcdA and TcdB holotoxins is performed in 25 μL 20 mM Tris-HCI, 150 mM NaCI (pH 7.4) with and without InsP6 for 10-60 min at 37° C. (FIG. 6). Cleavage reactions are then stopped with SDS-PAGE loading buffer and boiling at 96° C. for 5 min. Samples are then run under reducing conditions on 4-20% gradient gels and cleavage products stained with GelcodeBiue™ for 1 hr and cleared in water overnight. AC50 and IC50 concentrations are calculated by measuring the relative absorbance of cleavage fragments relative to intact toxin using a LiCor Odyssey infrared scanner (λ=680 nm). Cleavage is plotted against ligand concentration using four-parameter logistic curve fitting on SigmaPlot 11.0 software. If the toxin cleavage efficiency remains unaltered in purified nitroso-InsP6 fractions, then toxin Rac1 glucosylation and cell rounding assays are initiated to evaluate cytoprotection in cell culture systems. […]

C. difficile = test: Experimental CDI model, delivery by implanted mini-osmotic pumps; type: in vivo, mice; details: 12.5 mg/kg/day by 7 day mini-osmotic pumps, from 1 day before inoculation with 10^6 bacteria
Text: In this set of experiments, vehicle treatment was associated with 100% mortality, vs. 40% and 10% for InsP6 and nitroso-InsP6 groups, respectively.
Because of the current uncertainty of the nitroso-InsP6 chemistry, there may be potential limitations to oral nitroso-InsP6 delivery as this molecule may show poor colonic bioavailability due to degradation and absorption in the small intestine.

Caco-2 colonocytes = test: Inhibition of toxin-induced cytotoxicity in Caco-2 colonocytes; type: cell-based; details: Homo sapiens, FIG. 3A right
TcdA and TcdB holotoxins [3] = target: TcdA and TcdB holotoxins (Clostridioides difficile, UniProt P18177); type: biochemical, Clostridium difficile
TcdA and TcdB holotoxins (Clostridioides difficile, UniProt P18177), sequence (P18177 2-2366 limits assumed): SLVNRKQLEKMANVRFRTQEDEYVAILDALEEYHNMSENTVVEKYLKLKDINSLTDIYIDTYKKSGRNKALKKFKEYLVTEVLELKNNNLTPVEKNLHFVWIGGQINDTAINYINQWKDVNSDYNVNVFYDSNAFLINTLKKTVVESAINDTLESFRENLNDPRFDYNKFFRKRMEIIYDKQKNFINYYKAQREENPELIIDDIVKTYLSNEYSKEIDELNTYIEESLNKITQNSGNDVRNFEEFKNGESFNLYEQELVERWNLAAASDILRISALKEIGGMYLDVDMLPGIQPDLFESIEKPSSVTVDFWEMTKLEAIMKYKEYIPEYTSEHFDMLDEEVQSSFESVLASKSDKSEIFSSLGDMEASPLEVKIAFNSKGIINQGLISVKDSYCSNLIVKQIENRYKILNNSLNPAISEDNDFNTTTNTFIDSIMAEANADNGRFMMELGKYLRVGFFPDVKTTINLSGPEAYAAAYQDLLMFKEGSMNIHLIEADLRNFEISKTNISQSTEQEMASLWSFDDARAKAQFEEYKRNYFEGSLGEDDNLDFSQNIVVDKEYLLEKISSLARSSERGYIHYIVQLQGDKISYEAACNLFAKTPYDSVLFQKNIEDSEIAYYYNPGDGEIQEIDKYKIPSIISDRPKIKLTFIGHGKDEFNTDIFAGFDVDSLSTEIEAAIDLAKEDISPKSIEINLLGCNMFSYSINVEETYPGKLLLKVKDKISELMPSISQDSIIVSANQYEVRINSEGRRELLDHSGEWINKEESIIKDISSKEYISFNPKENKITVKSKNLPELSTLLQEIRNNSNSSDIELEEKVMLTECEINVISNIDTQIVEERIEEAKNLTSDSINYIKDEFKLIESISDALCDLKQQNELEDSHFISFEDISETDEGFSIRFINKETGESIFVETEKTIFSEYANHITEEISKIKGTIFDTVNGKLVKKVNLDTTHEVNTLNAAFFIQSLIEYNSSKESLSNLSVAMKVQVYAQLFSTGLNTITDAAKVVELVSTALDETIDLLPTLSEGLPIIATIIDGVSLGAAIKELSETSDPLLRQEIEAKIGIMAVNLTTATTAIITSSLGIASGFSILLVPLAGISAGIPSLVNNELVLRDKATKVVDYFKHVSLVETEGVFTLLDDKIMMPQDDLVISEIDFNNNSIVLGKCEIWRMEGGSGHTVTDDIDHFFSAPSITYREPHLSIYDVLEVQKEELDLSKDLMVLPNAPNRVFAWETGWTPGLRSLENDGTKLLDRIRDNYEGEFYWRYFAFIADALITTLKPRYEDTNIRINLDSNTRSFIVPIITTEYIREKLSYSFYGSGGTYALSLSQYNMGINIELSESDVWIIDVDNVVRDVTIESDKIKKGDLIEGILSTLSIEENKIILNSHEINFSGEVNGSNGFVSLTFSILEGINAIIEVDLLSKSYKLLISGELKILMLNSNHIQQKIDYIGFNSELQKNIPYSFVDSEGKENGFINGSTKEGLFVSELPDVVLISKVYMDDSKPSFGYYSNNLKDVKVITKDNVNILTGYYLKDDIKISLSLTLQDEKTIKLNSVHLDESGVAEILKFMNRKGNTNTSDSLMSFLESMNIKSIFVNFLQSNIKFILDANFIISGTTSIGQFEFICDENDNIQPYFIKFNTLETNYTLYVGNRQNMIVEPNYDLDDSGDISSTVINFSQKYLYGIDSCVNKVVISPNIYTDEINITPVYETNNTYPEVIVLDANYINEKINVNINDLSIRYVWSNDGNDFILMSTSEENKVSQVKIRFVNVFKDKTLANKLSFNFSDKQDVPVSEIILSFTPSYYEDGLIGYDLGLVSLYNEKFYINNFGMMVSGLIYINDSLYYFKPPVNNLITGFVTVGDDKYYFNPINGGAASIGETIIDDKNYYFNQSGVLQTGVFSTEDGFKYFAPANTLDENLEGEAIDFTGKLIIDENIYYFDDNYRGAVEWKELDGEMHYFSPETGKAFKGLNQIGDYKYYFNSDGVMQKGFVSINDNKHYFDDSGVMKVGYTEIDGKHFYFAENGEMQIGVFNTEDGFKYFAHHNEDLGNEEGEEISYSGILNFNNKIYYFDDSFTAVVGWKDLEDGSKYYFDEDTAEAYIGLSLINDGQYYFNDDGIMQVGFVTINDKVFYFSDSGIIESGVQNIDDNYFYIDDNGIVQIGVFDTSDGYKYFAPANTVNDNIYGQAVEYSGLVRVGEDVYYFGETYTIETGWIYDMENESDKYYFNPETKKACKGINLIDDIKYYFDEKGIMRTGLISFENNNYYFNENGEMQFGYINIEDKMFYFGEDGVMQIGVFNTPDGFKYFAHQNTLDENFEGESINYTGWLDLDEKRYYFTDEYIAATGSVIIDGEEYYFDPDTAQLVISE
Description: as §1

[4] = Table 1, representative inositol analogs

O[C@H]1[C@H](O)[C@@H](O)[C@H](O)[C@@H](O)[C@H]1O [myo-inositol, (1R,2R,3S,4S,5R,6S)-cyclohexane-1,2,3,4,5,6-hexol]
Protection of mice from CDI (survival) [1]: not evident

(1/3)-phospho-myo-inositol hexaakisphosphate [Myo-InsP7(1/3)]
AC50 (TcdA and TcdB holotoxins [2]; [4]): 3.04 µM

O=P(O)(O)OC1C(O)C(OP(=O)(O)O)C(OP(=O)(O)O)C(OP(=O)(O)O)C1OP(=O)(O)O (stereo not drawn) [Myo-InsP5(3), myo-inositol-(1,2,4,5,6-pentakisphosphate)]
AC50 (TcdA and TcdB holotoxins [2]; [4]): 95.6 µM

O=P(O)(O)OC1[C@H](OP(=O)(O)O)[C@H](OP(=O)(O)O)C(O)[C@H](OP(=O)(O)O)[C@H]1OP(=O)(O)O (stereo partly drawn) [Myo-InsP5(4), myo-inositol-(1,2,3,5,6-pentakisphosphate)]
AC50 (TcdA and TcdB holotoxins [2]): > 1000 µM

inositolhexakissulfate [InS6]
Toxin cleavage activity (preliminary studies) (TcdA and TcdB holotoxins [2]): active compound

OP(O)(=S)OC1C(OP(O)(O)=S)C(OP(O)(O)=S)C(OP(O)(O)=S)C(OP(O)(O)=S)C1OP(O)(O)=S [Myo-InsP6(S), myo-inositol-(1,2,3,4,5,6-phosphorothioate)]
Phytase resistance (phytase): increased phytase resistance | AC50 (TcdA and TcdB holotoxins [2]; [4]): 1.99 µM

O=P(O)(O)OC1C(O)C(OP(=O)(O)O)C(OP(=O)(O)O)C(OP(=O)(O)O)C1OP(=O)(O)O (stereo not drawn) [Myo-InsP5(2), myo-inositol-(1,3,4,5,6-pentakisphosphate)]
AC50 (TcdA and TcdB holotoxins [2]; [4]): 10.5 µM

O=P(O)(O)O[C@H]1[C@H](OP(=O)(O)O)[C@@H](OP(=O)(O)O)[C@H](OP(=O)(O)O)[C@@H](OP(=O)(O)O)[C@H]1OP(=O)(O)O [Myo-InsP6, myo-inositol-hexakisphosphate]
Mortality (C. difficile): 40% | Statistical significance of the protective effect ([1]; 2.5 mg/kg group): statistically significant | Protection of mice from CDI (survival) [1]: dose dependently protects mice from CDI; also recorded: dose-dependent protective effects | IC50 (Caco-2 colonocytes): 10 µM | IC50, C. difficile toxins autocleaved (TcdA and TcdB holotoxins [3]; FIGS. 3A-3B): 10 µM | AC50, toxin autocleavage (TcdA and TcdB holotoxins [3]; TcdB, FIG. 3A left): 10 µM | AC50 (TcdA and TcdB holotoxins [2]): 14.8 µM

O=P(O)(O)OC1C(O)C(OP(=O)(O)O)C(OP(=O)(O)O)C(OP(=O)(O)O)C1O (stereo not drawn) [Myo-InsP4(4,6), myo-inositol-(1,2,3,5-tetrakisphosphate)]
AC50 (TcdA and TcdB holotoxins [2]; [4]): > 1000 µM

O=P(O)(O)OC1C(O)C(OP(=O)(O)O)C(OP(=O)(O)O)C(OP(=O)(O)O)C1OP(=O)(O)O (stereo not drawn) [Myo-InsP5(1), myo-inositol-(2,3,4,5,6-pentakisphosphate)]
AC50 (TcdA and TcdB holotoxins [2]; [4]): 8.67 µM

O=P(O)(O)OC1C(O)C(OP(=O)(O)O)C(OP(=O)(O)O)C(OP(=O)(O)O)C1O (stereo not drawn) [Myo-InsP4(2,6), myo-inositol-(1,3,4,5-tetrakisphosphate)]
AC50 (TcdA and TcdB holotoxins [2]; [4]): > 1000 µM

From US9200015B2, “Inositol hexakisphosphate analogs and uses thereof” (priority 2011, dated 2015)
